According to patent EP4603105A1, “PHARMACEUTICAL COMPOSITION CONTAINING CYCLIC COMPOUND HAVING SELECTIVE KRAS INHIBITORY EFFECT AGAINST HRAS AND NRAS” (CHUGAI SEIYAKU KABUSHIKI KAISHA, priority 2022, dated 2024):
Where a SMILES comes first, the peptide text is derived from it. Bridges are numbered along the chain shown (N, C = ends). [ ]: non-standard residue; d: D form. The star is where a group is joined. hPhe(3-Cl-4-CF3) = N[C@@H](CCc1ccc(C(F)(F)F)c(Cl)c1)C(=O)O; NPrPhe(4-CF3) = CCCN[C@@H](Cc1ccc(C(F)(F)F)cc1)C(=O)O; Pro(4-spirocPr) = O=C(O)[C@@H]1CC2(CC2)CN1; Morpholine(3S-CO) = O=C(O)[C@@H]1COCCN1; Pip(4,4-F2) = O=C(O)[C@@H]1CC(F)(F)CCN1; NMeGly(cPent) = CN[C@H](C(=O)O)C1CCCC1; Gly(cPent) = N[C@H](C(=O)O)C1CCCC1; Hyp = O=C(O)[C@@H]1C[C@@H](O)CN1; Gly(cBu) = N[C@H](C(=O)O)C1CCC1; NMeD = CN[C@@H](CC(=O)O)C(=O)O; NMeL = CN[C@@H](CC(C)C)C(=O)O; Pip = O=C(O)[C@@H]1CCCCN1; Morpholide = C1CN(*)CCO1; Ac5c = NC1(C(=O)O)CCCC1; Aze = O=C(O)[C@@H]1CCN1; NPrGly = CCCNCC(=O)O; NEtG = CCNCC(=O)O; Sar = CNCC(=O)O

Key:
[1] = biological target: GDP-bound NRAS wild-type protein (Homo sapiens, UniProt P01111); assay: Binding to NRAS by surface plasmon resonance (SPR), KD and KD ratio to KRAS; conditions: ratio of KD for GDP-bound NRAS wild-type protein to KD for KRAS
How it was run: (§1)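 Single-cycle kinetics on GDP-loaded biotin-Avi RAS captured to ~100–300 RU; 75 s ascending injections, 100 µL/min, 30°C. HBS pH 7.4 + 10 mM MgCl2/10 µM GDP/4% DMSO. 1:1 fit, KD.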

HRAS wild-type protein = HRAS wild-type protein (Homo sapiens, UniProt P01112); assay: Binding to HRAS by surface plasmon resonance (SPR), KD and KD ratio to KRAS; conditions: ratio of KD for HRAS wild-type protein to KD for KRAS
How it was run: as §1

[2] = test system: human lung cancer strain NCI-H441; format: cell-based
How it was run: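 Proliferation was scored by […] measured after the reagent was added to cultures kept at 37°C in 5% carbon dioxide.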

Sequence of HRAS wild-type protein (P01112 whole entry): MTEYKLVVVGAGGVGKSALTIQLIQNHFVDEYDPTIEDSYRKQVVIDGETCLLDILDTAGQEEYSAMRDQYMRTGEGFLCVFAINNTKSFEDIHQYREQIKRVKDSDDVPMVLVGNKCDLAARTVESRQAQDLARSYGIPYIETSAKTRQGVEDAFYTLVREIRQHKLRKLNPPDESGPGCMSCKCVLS
Sequence of GDP-bound NRAS wild-type protein (P01111 whole entry): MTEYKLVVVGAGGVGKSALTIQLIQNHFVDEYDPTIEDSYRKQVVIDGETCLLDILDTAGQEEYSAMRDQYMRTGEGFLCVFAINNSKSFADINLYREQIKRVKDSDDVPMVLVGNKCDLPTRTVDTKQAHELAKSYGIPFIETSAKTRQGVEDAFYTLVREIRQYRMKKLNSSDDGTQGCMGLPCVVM

CCCN1C(=O)CN(C)C(=O)CN(CC)C(=O)[C@H](C2CCC2)NC(=O)[C@H](CC(C)C)N(C)C(=O)C[C@@H](C(=O)N2CCOCC2)N(C)C(=O)[C@H](C2CCCC2)N(C)C(=O)C2(CCCC2)NC(=O)[C@@H]2CCCN2C(=O)[C@H](CCc2ccc(C(F)(F)F)c(Cl)c2)NC(=O)CN(C)C(=O)[C@@H]1Cc1ccc(C(F)(F)F)cc1 [PP0292] ([NMeL][Gly(cBu)][NEtG][Sar][NPrPhe(4-CF3)][Sar][hPhe(3-Cl-4-CF3)]P[Ac5c][NMeGly(cPent)][NMeD]-Morpholide; lactam N-11)
NRAS /KRAS [1]: B (a compound having 3 or more and less than 10 is denoted as B)
HRAS /KRAS (HRAS wild-type protein): C (A compound having a KD ratio of 0.1 or more and less than 3 is denoted as C)
IC50 [2]: 36.3 nM

CCCN1C(=O)CN(C)C(=O)CN(CC)C(=O)[C@H](C2CCCC2)NC(=O)[C@H](CC(C)C)N(C)C(=O)C[C@@H](C(=O)N2CCOCC2)N(C)C(=O)[C@H](C2CCCC2)N(C)C(=O)C2(CCCC2)NC(=O)[C@@H]2CCCN2C(=O)[C@H](CCc2ccc(C(F)(F)F)c(Cl)c2)NC(=O)CN(C)C(=O)[C@@H]1Cc1ccc(C(F)(F)F)cc1 [PP0293] ([NMeL][Gly(cPent)][NEtG][Sar][NPrPhe(4-CF3)][Sar][hPhe(3-Cl-4-CF3)]P[Ac5c][NMeGly(cPent)][NMeD]-Morpholide; lactam N-11)
NRAS /KRAS [1]: B (a compound having 3 or more and less than 10 is denoted as B)
HRAS /KRAS (HRAS wild-type protein): C (A compound having a KD ratio of 0.1 or more and less than 3 is denoted as C)
IC50 [2]: 37.6 nM

CCCN1C(=O)CN(C)C(=O)CN(CC)C(=O)[C@H]([C@@H](C)CC)NC(=O)[C@H](CC(C)C)N(C)C(=O)C[C@@H](C(=O)N2CCOCC2)N(C)C(=O)[C@H](C2CCCC2)N(C)C(=O)C2(CCCC2)NC(=O)[C@@H]2CCN2C(=O)[C@H](CCc2ccc(C(F)(F)F)c(Cl)c2)NC(=O)CN(C)C(=O)[C@@H]1Cc1ccc(C(F)(F)F)cc1 [PP0294] ([NMeL]I[NEtG][Sar][NPrPhe(4-CF3)][Sar][hPhe(3-Cl-4-CF3)][Aze][Ac5c][NMeGly(cPent)][NMeD]-Morpholide; lactam N-11)
NRAS /KRAS [1]: B (a compound having 3 or more and less than 10 is denoted as B)
HRAS /KRAS (HRAS wild-type protein): C (A compound having a KD ratio of 0.1 or more and less than 3 is denoted as C)
IC50 [2]: 55.4 nM

CCCN1C(=O)CN(C)C(=O)CN(CC)C(=O)[C@H]([C@@H](C)CC)NC(=O)[C@H](CC(C)C)N(C)C(=O)C[C@@H](C(=O)N2CCOCC2)N(C)C(=O)[C@H](C2CCCC2)N(C)C(=O)C2(CCCC2)NC(=O)[C@@H]2CC3(CC3)CN2C(=O)[C@H](CCc2ccc(C(F)(F)F)c(Cl)c2)NC(=O)CN(C)C(=O)[C@@H]1Cc1ccc(C(F)(F)F)cc1 [PP0295] ([NMeL]I[NEtG][Sar][NPrPhe(4-CF3)][Sar][hPhe(3-Cl-4-CF3)][Pro(4-spirocPr)][Ac5c][NMeGly(cPent)][NMeD]-Morpholide; lactam N-11)
NRAS /KRAS [1]: B (a compound having 3 or more and less than 10 is denoted as B)
HRAS /KRAS (HRAS wild-type protein): C (A compound having a KD ratio of 0.1 or more and less than 3 is denoted as C)
IC50 [2]: 33.2 nM

CCCN1C(=O)CN(C)C(=O)CN(CC)C(=O)[C@H]([C@@H](C)CC)NC(=O)[C@H](CC(C)C)N(C)C(=O)C[C@@H](C(=O)N2CCOCC2)N(C)C(=O)[C@H](C2CCCC2)N(C)C(=O)C2(CCCC2)NC(=O)[C@@H]2C[C@@H](OC)CN2C(=O)[C@H](CCc2ccc(C(F)(F)F)c(Cl)c2)NC(=O)CN(C)C(=O)[C@@H]1Cc1ccc(C(F)(F)F)cc1 [PP0296] ([NMeL]I[NEtG][Sar][NPrPhe(4-CF3)][Sar][hPhe(3-Cl-4-CF3)][Hyp](Me)[Ac5c][NMeGly(cPent)][NMeD]-Morpholide; lactam N-11)
NRAS /KRAS [1]: B (a compound having 3 or more and less than 10 is denoted as B)
HRAS /KRAS (HRAS wild-type protein): C (A compound having a KD ratio of 0.1 or more and less than 3 is denoted as C)
IC50 [2]: 4.3 nM

CCCN1C(=O)CN(C)C(=O)CN(CC)C(=O)[C@H]([C@@H](C)CC)NC(=O)[C@H](CC(C)C)N(C)C(=O)C[C@@H](C(=O)N2CCOCC2)N(C)C(=O)[C@H](C2CCCC2)N(C)C(=O)C2(CCCC2)NC(=O)[C@@H]2CC(F)(F)CCN2C(=O)[C@H](CCc2ccc(C(F)(F)F)c(Cl)c2)NC(=O)CN(C)C(=O)[C@@H]1Cc1ccc(C(F)(F)F)cc1 [PP0298] ([NMeL]I[NEtG][Sar][NPrPhe(4-CF3)][Sar][hPhe(3-Cl-4-CF3)][Pip(4,4-F2)][Ac5c][NMeGly(cPent)][NMeD]-Morpholide; lactam N-11)
NRAS /KRAS [1]: B (a compound having 3 or more and less than 10 is denoted as B)
HRAS /KRAS (HRAS wild-type protein): C (A compound having a KD ratio of 0.1 or more and less than 3 is denoted as C)
IC50 [2]: 41.1 nM

CCCN1C(=O)CN(C)C(=O)CN(CC)C(=O)[C@H]([C@@H](C)CC)NC(=O)[C@H](CC(C)C)N(C)C(=O)C[C@@H](C(=O)N2CCOCC2)N(C)C(=O)[C@H](C2CCCC2)N(C)C(=O)C2(CCCC2)NC(=O)[C@@H]2COCCN2C(=O)[C@H](CCc2ccc(C(F)(F)F)c(Cl)c2)NC(=O)CN(C)C(=O)[C@@H]1Cc1ccc(C(F)(F)F)cc1 [PP0299] ([NMeL]I[NEtG][Sar][NPrPhe(4-CF3)][Sar][hPhe(3-Cl-4-CF3)][Morpholine(3S-CO)][Ac5c][NMeGly(cPent)][NMeD]-Morpholide; lactam N-11)
NRAS /KRAS [1]: B (a compound having 3 or more and less than 10 is denoted as B)
HRAS /KRAS (HRAS wild-type protein): B (a compound having 3 or more and less than 10 is denoted as B)
IC50 [2]: 20.2 nM

CCCN1C(=O)CN(C)C(=O)CN(CC)C(=O)[C@H]([C@@H](C)CC)NC(=O)[C@H](CC(C)C)N(C)C(=O)C[C@@H](C(=O)N2CCOCC2)N(C)C(=O)[C@H](C2CCCC2)N(C)C(=O)C2(CCCC2)NC(=O)CN(C)C(=O)[C@H](CCc2ccc(C(F)(F)F)c(Cl)c2)NC(=O)CN(C)C(=O)[C@@H]1Cc1ccc(C(F)(F)F)cc1 [PP0300] ([NMeL]I[NEtG][Sar][NPrPhe(4-CF3)][Sar][hPhe(3-Cl-4-CF3)][Sar][Ac5c][NMeGly(cPent)][NMeD]-Morpholide; lactam N-11)
NRAS /KRAS [1]: B (a compound having 3 or more and less than 10 is denoted as B)
HRAS /KRAS (HRAS wild-type protein): C (A compound having a KD ratio of 0.1 or more and less than 3 is denoted as C)
IC50 [2]: 73.9 nM

CCCN1CC(=O)NC2(CCCC2)C(=O)N(C)[C@@H](C2CCCC2)C(=O)N(C)[C@H](C(=O)N2CCOCC2)CC(=O)N(C)[C@@H](CC(C)C)C(=O)N[C@@H]([C@@H](C)CC)C(=O)N(CC)CC(=O)N(C)CC(=O)N(CCC)[C@@H](Cc2ccc(C(F)(F)F)cc2)C(=O)N(C)CC(=O)N[C@@H](CCc2ccc(C(F)(F)F)c(Cl)c2)C1=O [PP0301] ([NMeL]I[NEtG][Sar][NPrPhe(4-CF3)][Sar][hPhe(3-Cl-4-CF3)][NPrGly][Ac5c][NMeGly(cPent)][NMeD]-Morpholide; lactam N-11)
NRAS /KRAS [1]: B (a compound having 3 or more and less than 10 is denoted as B)
HRAS /KRAS (HRAS wild-type protein): C (A compound having a KD ratio of 0.1 or more and less than 3 is denoted as C)
IC50 [2]: 88.2 nM

CCCN1C(=O)CN(C)C(=O)[C@@H]2CCN2C(=O)[C@H](C2CCC2)NC(=O)[C@H](CC(C)C)N(C)C(=O)C[C@@H](C(=O)N2CCOCC2)N(C)C(=O)[C@H](C2CCCC2)N(C)C(=O)C2(CCCC2)NC(=O)[C@@H]2CCCN2C(=O)[C@H](CCc2ccc(C(F)(F)F)c(Cl)c2)NC(=O)CN(C)C(=O)[C@@H]1Cc1ccc(C(F)(F)F)cc1 [PP0305] ([NMeL][Gly(cBu)][Aze][Sar][NPrPhe(4-CF3)][Sar][hPhe(3-Cl-4-CF3)]P[Ac5c][NMeGly(cPent)][NMeD]-Morpholide; lactam N-11)
NRAS /KRAS [1]: B (a compound having 3 or more and less than 10 is denoted as B)
HRAS /KRAS (HRAS wild-type protein): C (A compound having a KD ratio of 0.1 or more and less than 3 is denoted as C)
IC50 [2]: 49.6 nM

CCCN1C(=O)CN(C)C(=O)[C@@H]2CCN2C(=O)[C@H]([C@@H](C)CC)NC(=O)[C@H](CC(C)C)N(C)C(=O)C[C@@H](C(=O)N2CCOCC2)N(C)C(=O)[C@H](C2CCCC2)N(C)C(=O)C2(CCCC2)NC(=O)[C@@H]2C[C@@H](OCC)CN2C(=O)[C@H](CCc2ccc(C(F)(F)F)c(Cl)c2)NC(=O)CN(C)C(=O)[C@@H]1Cc1ccc(C(F)(F)F)cc1 [PP0310] ([NMeL]I[Aze][Sar][NPrPhe(4-CF3)][Sar][hPhe(3-Cl-4-CF3)][Hyp](Et)[Ac5c][NMeGly(cPent)][NMeD]-Morpholide; lactam N-11)
NRAS /KRAS [1]: B (a compound having 3 or more and less than 10 is denoted as B)
HRAS /KRAS (HRAS wild-type protein): C (A compound having a KD ratio of 0.1 or more and less than 3 is denoted as C)
IC50 [2]: 13.8 nM

CCCN1C(=O)CN(C)C(=O)[C@@H]2CCN2C(=O)[C@H]([C@@H](C)CC)NC(=O)[C@H](CC(C)C)N(C)C(=O)C[C@@H](C(=O)N2CCOCC2)N(C)C(=O)[C@H](C2CCCC2)N(C)C(=O)C2(CCCC2)NC(=O)[C@@H]2CCCCN2C(=O)[C@H](CCc2ccc(C(F)(F)F)c(Cl)c2)NC(=O)CN(C)C(=O)[C@@H]1Cc1ccc(C(F)(F)F)cc1 [PP0311] ([NMeL]I[Aze][Sar][NPrPhe(4-CF3)][Sar][hPhe(3-Cl-4-CF3)][Pip][Ac5c][NMeGly(cPent)][NMeD]-Morpholide; lactam N-11)
NRAS /KRAS [1]: B (a compound having 3 or more and less than 10 is denoted as B)
HRAS /KRAS (HRAS wild-type protein): B (a compound having 3 or more and less than 10 is denoted as B)
IC50 [2]: 147 nM
